Experiments:
human PVR = biological target: T1, human PVR (Homo sapiens, UniProt P15151); test: Microscale thermophoresis (MST) binding
T1 construct: His; purchased ACRO Biosystem CD5-H5223
Protocol: (§1) MST assays were performed to test the affinity of SMI-F11 (azelnidipine) to the indicated protein using the Monolith NT.115 system, as previously reported. His tagged human SIRPα (SIA-H5225, ACRO Biosystem, Beijing, China), mouse SIRPα (50956-M08H, Sino Biological, Beijing, China), human PVR (CD5-H5223, ACRO Biosystem, Beijing, China), and mouse PVR (50259-M08H, Sino Biological, Beijing, China) were used. The protein was labeled with Red-NHS647 dye (NanoTemper Technologies GmhH, Munich, Germany) according to the manufacturer’s instructions. Azelnidipine was 2-fold serially diluted from 200 μM and subsequently tested. Red-NHS647 dye-labeled protein was incubated with the diluted azelnidipine, with equal volume for 5 min at room temperature; the mixture was then loaded onto standard capillaries for detection. The KD values were calculated by the analysis software (MO. Affinity Analysis, version number 2.2.4, NanoTemper Technologies GmhH, Munich, Germany).

mouse PVR = mouse PVR (Mus musculus, UniProt F6V4I7); test: Microscale thermophoresis (MST) binding
Protocol: as §1

mouse SIRPα = biological target: T2, mouse SIRPα (Mus musculus, UniProt P97797); test: Microscale thermophoresis (MST) binding
T2 construct: His; purchased Sino Biological 50956-M08H
Protocol: as §1

human SIRPα = biological target: T3, human SIRPα (Homo sapiens, UniProt P78324); test: Microscale thermophoresis (MST) binding
T3 construct: His; purchased ACRO Biosystem SIA-H5225
Protocol: as §1

human CD47/SIRPα = biological target: T4, human CD47/SIRPα (Homo sapiens, UniProt P78324); test: Blocking assay, human SIRPα protein binding to CHOK1-hCD47 cells; conditions: concentration gradient; read-out: IC50, blocking human CD47/SIRPα (hSirpα binding)
T4 construct: purchased ACRO Biosystem SIA-H5251; host or cells: soluble protein purchased; CD47 on CHOK1-hCD47 cells (lenti-viral transfection)
Protocol: (§2) The abilities of small molecule inhibitors (SMIs) (purchased from TargetMol, Shanghai, China) to block the binding of SIRPα protein to CHOK1-CD47 cells or PVR protein to CHOK1-TIGIT cells were determined by flow cytometry, as previously reported. The SMIs at indicated concentrations were incubated with Fc-tagged SIRPα or PVR protein for 30 min at 4°C, followed by incubating with the indicated cells for another 30 min. Human SIRPα protein (SIA-H5251, ACRO Biosystem, Beijing, China), mouse SIRPα protein (SIA-M5258, ACRO Biosystem, Beijing, China), human PVR protein (CD5-H82F6, ACRO Biosystem, Beijing, China), and mouse PVR protein (50259-M03H, Sino Biological, Beijing, China) were used. PE-conjugated anti-human IgG antibody was used to detect the Fc protein bind to cells. Cells incubated with the Fc proteins and anti-human IgG antibody without the SMIs serve as the positive control. The mean fluorescent intensity (MFI) of each sample was detected and recorded by a flow cytometry. The blocking efficacy of the SMIs was calculated as the equation: (MFI of the positive control-MFI of the SMI)/MFI of the positive control × 100%.

PVR = test: Flow cytometry of PVR expression on tumor cells from CT26-bearing mice; format: in vivo, mouse; conditions: 5 mg/kg for twelve days, CD45- tumor cells
Protocol: Cells in good growth condition were harvested and used to detect the expression of CD47 and PVR. Antibodies anti-human CD47 APC, anti-human PVR PE, anti-mouse-CD47 APC, anti-mouse-PVR APC, and matched isotype controls were purchased from eBioscience, San Diego, CA, USA. The effects of azelnidipine on the expression of CD47 and PVR was determined by incubating CT26 cells with 20 μM of azelnidipine for 24 h, or directly analyzing the tumor cells from tumor tissues of CT26-bearing mice treated with or without azelnidipine.
Figure S3. The effects of Azelnidipine on the expression of CD47 and PVR on CT26 tumor cells. (A and B) CT26 cells were incubated with 20 μM Azelnidipine or vehicle control for 24h, and analyzed the expression of CD47 (A) and PVR (B). The gray shaded histogram represents the isotype, the red line represents the cells treated with vehicle control, and the blue line represents the cells treated with Azelnidipine. (C and D) Tumor cells (CD45-) derived from the tumor tissues of CT26 tumor-bearing mice treated with normal saline (NS) or 5 mg/kg Azelnidipine for twelve days, were analyzed for the expression of CD47 (C) and PVR (D). n.s. means not […]
(1 picture or pasted object on this page, not shown here)

TIGIT/PVR interaction = biological target: T5, TIGIT/PVR interaction (Homo sapiens, UniProt P15151); test: Blocking assay by flow cytometry, preliminary screening at a single concentration, TIGIT/PVR; format: binding; conditions: preliminary test, single concentration of 100 μM
T5 construct: purchased ACRO Biosystem CD5-H82F6; host or cells: CHOK1-TIGIT cells (lenti-viral transfection)
T5 sequence (P15151 21-343 limits assumed): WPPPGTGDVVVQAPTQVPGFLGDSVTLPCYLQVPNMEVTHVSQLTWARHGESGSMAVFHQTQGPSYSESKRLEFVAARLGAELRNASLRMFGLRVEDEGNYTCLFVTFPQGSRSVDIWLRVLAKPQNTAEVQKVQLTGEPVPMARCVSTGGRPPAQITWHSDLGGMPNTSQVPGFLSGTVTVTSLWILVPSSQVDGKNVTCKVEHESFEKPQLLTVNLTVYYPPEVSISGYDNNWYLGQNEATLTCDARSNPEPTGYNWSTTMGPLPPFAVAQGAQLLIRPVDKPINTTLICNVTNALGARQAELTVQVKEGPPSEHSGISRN
Protocol: as §2
The small molecule inhibitor could not only bind to the target; most importantly, it should interfere with the receptor–ligand interactions. Subsequently, the candidate inhibitors were screened by the blocking assays with the established CD47 and TIGIT over-expressing cell lines. The test was initialed with a preliminary screening of the candidates with a single concentration (Figure 2D). Generally, the SMI blocking efficacy to the CD47/SIRPα interaction was much higher than that of the TIGIT/PVR. […] Therefore, the SMI-F11 and SMI-F17 may exert dual blocking effects in the CD47/SIRPα and TIGIT/PVR pathways. Blocking assays with a concentration gradient of the SMI were further performed to validate the preliminary screening. […] The similar blocking assays with the mouse CD47 and TIGIT over-expressing cells were also performed. […] Considering that most pairs of the immune checkpoints interact with the corresponding ligand in parallel forms, the blocking assays with the PD-1/PD-L1 interaction system was also conducted to test the specificity.

IL-12 p40 = tested on: IL-12 p40; design: method as in PMID 19438591; conditions: cited from earlier work

T1 sequence (P15151 21-417): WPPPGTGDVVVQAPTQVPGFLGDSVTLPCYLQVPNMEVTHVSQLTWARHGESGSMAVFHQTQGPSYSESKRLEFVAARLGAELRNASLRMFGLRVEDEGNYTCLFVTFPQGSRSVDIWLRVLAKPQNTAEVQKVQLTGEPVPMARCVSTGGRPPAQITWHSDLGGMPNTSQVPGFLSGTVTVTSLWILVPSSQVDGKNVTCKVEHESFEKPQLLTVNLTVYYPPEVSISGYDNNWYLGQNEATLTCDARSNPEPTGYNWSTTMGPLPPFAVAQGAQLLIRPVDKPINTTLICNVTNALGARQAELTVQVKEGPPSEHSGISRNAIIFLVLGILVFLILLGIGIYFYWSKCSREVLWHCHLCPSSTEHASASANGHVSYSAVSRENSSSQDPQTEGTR
T3 sequence (P78324 31-504): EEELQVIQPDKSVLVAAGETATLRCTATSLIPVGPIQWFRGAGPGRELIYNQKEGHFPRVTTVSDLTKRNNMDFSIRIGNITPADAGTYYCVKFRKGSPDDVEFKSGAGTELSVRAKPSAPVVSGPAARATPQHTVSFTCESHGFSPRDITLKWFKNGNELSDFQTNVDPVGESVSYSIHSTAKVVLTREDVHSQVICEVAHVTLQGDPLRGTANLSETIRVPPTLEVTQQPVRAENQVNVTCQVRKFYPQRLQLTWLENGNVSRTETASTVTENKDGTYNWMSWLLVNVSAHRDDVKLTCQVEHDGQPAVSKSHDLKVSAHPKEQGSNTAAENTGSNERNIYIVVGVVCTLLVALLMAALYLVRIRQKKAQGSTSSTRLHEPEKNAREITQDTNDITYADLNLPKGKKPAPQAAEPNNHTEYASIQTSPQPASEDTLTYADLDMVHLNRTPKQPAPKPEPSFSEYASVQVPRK
T2 sequence (P97797 32-513): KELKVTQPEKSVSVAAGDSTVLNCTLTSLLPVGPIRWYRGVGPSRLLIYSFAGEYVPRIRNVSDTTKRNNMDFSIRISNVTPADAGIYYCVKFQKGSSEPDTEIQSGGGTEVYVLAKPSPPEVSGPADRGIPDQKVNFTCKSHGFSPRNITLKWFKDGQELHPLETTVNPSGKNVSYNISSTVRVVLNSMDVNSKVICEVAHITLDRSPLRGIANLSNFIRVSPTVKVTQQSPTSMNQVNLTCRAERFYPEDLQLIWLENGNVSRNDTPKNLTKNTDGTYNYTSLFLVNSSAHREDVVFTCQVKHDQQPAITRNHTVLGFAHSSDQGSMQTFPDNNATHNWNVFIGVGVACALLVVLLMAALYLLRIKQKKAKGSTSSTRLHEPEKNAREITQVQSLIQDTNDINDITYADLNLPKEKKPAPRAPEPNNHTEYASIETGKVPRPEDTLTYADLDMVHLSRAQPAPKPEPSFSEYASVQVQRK
T4 sequence (P78324 31-370 limits assumed): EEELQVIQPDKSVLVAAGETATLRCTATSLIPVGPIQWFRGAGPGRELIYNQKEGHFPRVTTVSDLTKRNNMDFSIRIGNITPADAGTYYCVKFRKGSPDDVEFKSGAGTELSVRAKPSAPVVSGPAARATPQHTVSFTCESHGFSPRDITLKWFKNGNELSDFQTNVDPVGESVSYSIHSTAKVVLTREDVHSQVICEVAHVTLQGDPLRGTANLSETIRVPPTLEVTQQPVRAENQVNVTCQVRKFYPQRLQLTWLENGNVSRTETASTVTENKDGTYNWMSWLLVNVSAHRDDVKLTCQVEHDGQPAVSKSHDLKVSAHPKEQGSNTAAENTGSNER
mouse PVR, sequence (F6V4I7 29-347): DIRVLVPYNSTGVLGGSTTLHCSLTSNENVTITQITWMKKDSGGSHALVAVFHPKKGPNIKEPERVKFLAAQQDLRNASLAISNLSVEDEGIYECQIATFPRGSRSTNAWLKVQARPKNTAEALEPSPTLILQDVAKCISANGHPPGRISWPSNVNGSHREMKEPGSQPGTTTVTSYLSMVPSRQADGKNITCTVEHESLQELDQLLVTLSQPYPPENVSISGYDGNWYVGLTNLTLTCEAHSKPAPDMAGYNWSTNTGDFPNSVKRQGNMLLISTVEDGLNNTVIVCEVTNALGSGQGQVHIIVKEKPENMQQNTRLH

CC1=C(C(=O)OC(C)C)C(c2cccc([N+](=O)[O-])c2)C(C(=O)OC2CN(C(c3ccccc3)c3ccccc3)C2)=C(N)N1 (centres unmarked) [Azelnidipine]
Kd (human PVR): 6.48 µM | Kd (mouse PVR): 13.3 µM | Kd (mouse SIRPα): 3.75 µM | Kd (human SIRPα): 5.37 µM | IC50 (human CD47/SIRPα): ~36 µM | expression of PVR on CT26 tumor cells derived from tumor tissues (PVR): could inhibit the expression of PVR | activity in interfering with the TIGIT/PVR interaction (TIGIT/PVR interaction): better activities | secretion of IL-12 p40 mediated by immune complex (IL-12 p40): enhance the secretion of IL-12 p40
